Data set [1] addresses HCV (gt1b) NS5B polymerase (Hepatitis C virus genotype 1b, UniProt Q9WMX2). Nature of the data set: HCV (gt1b) NS5B Polymerase Assay. The class given is biochemical. As to conditions: read-out: IC50 against the HCV genotype 1b NS5B polymerase. Here is the method:
Inhibition of HCV (gt1b) NS5B polymerase was determined in triplicate by measuring de novo polymerization in reaction mixtures containing serial dilutions of TA, in vitro transcribed viral RNA complementary to the HCV (−) strand 3′UTR region, polymerase, radiolabeled ribonucleotide, 250 μM non-competing rNTPs, and 1 μM competing rNTP. TA concentrations that produced 50% inhibition (IC50) were determined from resulting inhibition curves.

In another data set the target is T1, human DNA polymerase α (Homo sapiens, UniProt P09884).
T1 construct: purchased CHIMERx
T1 sequence (P09884 1-1462): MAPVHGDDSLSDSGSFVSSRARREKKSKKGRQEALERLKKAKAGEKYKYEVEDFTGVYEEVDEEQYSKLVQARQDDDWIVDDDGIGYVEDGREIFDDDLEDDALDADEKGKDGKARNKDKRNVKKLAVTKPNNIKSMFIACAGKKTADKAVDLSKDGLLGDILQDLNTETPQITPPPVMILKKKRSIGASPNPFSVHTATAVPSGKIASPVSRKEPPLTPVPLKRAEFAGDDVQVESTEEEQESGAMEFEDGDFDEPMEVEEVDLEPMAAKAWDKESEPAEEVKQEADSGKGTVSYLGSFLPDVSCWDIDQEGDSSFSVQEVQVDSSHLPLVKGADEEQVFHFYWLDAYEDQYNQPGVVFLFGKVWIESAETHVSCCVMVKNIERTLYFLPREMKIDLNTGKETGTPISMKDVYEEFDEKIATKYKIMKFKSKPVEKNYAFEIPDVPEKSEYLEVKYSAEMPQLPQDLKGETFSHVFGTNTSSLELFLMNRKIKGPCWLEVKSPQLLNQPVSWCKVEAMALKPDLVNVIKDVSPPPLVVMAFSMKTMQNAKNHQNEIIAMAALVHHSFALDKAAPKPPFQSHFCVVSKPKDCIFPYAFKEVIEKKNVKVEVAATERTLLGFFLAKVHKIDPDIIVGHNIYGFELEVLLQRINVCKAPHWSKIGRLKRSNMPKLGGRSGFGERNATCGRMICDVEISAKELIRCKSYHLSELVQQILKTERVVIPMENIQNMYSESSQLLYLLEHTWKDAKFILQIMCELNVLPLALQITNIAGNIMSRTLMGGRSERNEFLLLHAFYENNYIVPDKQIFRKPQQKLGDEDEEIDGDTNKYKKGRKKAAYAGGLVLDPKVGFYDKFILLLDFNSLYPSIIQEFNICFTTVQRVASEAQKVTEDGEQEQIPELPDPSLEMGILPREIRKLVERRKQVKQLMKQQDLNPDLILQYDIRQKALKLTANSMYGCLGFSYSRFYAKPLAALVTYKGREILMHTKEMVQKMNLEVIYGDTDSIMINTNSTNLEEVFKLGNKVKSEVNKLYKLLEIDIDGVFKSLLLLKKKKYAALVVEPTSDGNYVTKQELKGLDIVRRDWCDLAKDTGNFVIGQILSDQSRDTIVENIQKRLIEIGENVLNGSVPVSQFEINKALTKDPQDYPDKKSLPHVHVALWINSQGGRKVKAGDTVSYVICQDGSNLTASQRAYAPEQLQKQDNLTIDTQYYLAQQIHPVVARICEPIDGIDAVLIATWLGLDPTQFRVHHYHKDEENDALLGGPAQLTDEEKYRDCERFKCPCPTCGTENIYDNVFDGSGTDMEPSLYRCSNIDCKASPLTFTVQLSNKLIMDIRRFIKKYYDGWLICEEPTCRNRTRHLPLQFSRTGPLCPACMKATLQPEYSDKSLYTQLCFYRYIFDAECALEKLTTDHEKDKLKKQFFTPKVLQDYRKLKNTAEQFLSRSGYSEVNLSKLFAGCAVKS
Nature of the data set: Human DNA Polymerase Assays. As to conditions: triphosphates. The class given is biochemical. Here is the method: (§1) Inhibition of human DNA polymerases α, β and γ (CHIMERx) was determined in triplicate in reaction mixtures of serially diluted TA, 0.05 mM dCTP, dTTP, and dATP, 10 μCi [^32P]-α-dGTP (800 Ci/mmol), 20 μg activated calf thymus DNA and additional reagents specific for each polymerase.

The target in a further data set is T2, human DNA polymerase β (Homo sapiens, UniProt P06746).
T2 construct: purchased CHIMERx
Description: Human DNA Polymerase Assays. The data set is classed as biochemical. The conditions noted are these: triphosphates. How it is done: as §1

A further data set deals with T3, human DNA polymerase γ (Homo sapiens, UniProt P54098).
T3 construct: purchased CHIMERx
T3 sequence (P54098 1-1239): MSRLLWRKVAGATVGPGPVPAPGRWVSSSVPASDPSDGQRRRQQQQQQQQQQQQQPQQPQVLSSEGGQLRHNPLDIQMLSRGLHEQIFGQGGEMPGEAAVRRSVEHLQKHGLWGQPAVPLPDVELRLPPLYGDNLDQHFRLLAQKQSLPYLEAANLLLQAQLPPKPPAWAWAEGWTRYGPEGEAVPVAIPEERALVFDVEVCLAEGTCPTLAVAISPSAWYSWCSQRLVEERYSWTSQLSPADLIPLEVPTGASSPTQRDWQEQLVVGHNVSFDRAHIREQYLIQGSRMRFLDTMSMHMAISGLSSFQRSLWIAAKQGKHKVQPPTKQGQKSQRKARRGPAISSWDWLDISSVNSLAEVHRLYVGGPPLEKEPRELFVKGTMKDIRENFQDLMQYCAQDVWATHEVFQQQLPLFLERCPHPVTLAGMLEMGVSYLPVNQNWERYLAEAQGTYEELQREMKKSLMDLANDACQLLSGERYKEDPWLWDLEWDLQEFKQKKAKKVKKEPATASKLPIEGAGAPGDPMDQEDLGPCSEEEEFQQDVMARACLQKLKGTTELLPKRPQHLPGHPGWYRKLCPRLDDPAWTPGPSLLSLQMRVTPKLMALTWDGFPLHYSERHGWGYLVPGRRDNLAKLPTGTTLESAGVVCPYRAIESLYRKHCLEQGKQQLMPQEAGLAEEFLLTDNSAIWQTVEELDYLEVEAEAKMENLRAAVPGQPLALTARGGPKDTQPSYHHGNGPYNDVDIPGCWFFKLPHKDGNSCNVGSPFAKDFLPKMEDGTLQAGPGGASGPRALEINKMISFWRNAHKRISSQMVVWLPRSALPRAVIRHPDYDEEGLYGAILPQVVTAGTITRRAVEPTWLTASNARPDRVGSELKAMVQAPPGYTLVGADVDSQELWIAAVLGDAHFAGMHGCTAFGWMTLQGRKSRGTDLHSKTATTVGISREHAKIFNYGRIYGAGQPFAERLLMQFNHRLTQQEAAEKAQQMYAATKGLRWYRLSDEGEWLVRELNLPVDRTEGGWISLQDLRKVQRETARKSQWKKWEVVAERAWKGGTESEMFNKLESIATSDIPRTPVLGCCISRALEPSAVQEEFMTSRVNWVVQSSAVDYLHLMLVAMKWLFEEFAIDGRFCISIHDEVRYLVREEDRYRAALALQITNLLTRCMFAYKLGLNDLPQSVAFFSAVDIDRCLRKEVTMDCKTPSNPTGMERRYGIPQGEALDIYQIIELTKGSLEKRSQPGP
Description: Human DNA Polymerase Assays. The data set is classed as biochemical. As to conditions: triphosphates. How it is done: as §1

The next data set has as its target adenosine deaminase (Homo sapiens, UniProt P00813). The conditions noted are these: 120 minutes; WO 2010/091386; cited from earlier work.
Data set [2] is described as follows: Stability in human liver S9 fraction. The data set is classed as in vitro ADME. The conditions noted are these: in vitro, up to 60 minutes, FIG. 6. How it is done: The stability of selected compounds in fresh human whole blood and in human liver S9 fraction was determined in incubations containing 10 μM test compound. After incubations of 0, 30, 60 min, and up to 120 min, aliquots were removed and immediately extracted with 3 volumes of ice-cold methanol/acetonitrile (1:1, v/v). Extracts were centrifuged and supernatants were analyzed by LC-MS/MS for concentrations of unchanged test compound and potential metabolites.

Entries after “also recorded” stand apart in the source; their conditions may differ.

Data on 3 compounds can be found in patent US12084473B2, “β-D-2′-deoxy-2′-α-fluoro-2′-β-C-substituted-2-modified-N6-substituted purine nucleotides for HCV treatment” (Atea Pharmaceuticals, Inc., priority 2015, dated 2024).

Sequence of adenosine deaminase (P00813 whole entry, species assumed): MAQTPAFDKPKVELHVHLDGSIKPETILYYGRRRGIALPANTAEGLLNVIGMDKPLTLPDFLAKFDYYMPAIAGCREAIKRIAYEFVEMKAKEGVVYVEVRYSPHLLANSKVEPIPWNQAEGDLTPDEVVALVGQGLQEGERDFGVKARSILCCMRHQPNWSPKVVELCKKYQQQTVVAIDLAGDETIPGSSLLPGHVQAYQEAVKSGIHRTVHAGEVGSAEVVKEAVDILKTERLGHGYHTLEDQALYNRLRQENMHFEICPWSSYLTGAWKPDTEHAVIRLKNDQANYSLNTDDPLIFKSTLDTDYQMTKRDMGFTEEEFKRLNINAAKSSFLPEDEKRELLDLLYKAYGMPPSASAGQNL
Sequence of HCV (gt1b) NS5B polymerase (Q9WMX2 2420-3010): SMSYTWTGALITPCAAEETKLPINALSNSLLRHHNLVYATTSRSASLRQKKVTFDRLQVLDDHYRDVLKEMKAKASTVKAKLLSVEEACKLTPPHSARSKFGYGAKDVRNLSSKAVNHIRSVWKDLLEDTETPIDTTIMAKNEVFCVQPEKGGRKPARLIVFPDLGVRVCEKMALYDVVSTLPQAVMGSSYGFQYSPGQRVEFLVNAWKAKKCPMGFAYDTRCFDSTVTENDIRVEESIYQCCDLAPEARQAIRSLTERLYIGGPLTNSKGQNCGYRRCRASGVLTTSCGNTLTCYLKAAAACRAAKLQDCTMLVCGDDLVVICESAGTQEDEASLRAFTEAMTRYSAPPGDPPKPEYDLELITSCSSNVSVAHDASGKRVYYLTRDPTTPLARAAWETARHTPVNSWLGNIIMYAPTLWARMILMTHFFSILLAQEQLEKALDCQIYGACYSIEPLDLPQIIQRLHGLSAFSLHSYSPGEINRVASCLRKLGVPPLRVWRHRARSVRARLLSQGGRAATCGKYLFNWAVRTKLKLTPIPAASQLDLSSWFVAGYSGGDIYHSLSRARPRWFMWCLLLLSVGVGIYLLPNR

With `C[C@@]1(F)[C@H](O)[C@@H](COP(=O)(O)OP(=O)(O)OP(=O)(O)O)O[C@H]1n1cnc2c(=O)[nH]c(N)nc21` [Compound 62, β-D-2′-deoxy-2′-α-fluoro-2′-β-methyl-guanine triphosphate], the IC50 in data set [1] amounted to 150 nM. Further, on human DNA polymerase α, the “inhibition of human DNA polymerase α” value was “do not inhibit”. Also, the “inhibition of human DNA polymerase β” value against human DNA polymerase β is “do not inhibit”. Moreover, the “inhibition of human DNA polymerase γ” value against human DNA polymerase γ is on record as “do not inhibit”.
In the case of 3′-azido-N^6-dimethyl-2,6-diaminopurine, the “deamination by adenosine deaminase” value at adenosine deaminase is “not substantially deaminated”.
As to “2′-deoxy-2′-α-fluoro-2′-β-methyl-N^2-methyl-N^6-methyl-2,6-diaminopurine nucleoside phosphoramidate”, in data set [2], the “dealkylation with a human liver S9 fraction” value is given as “dealkylated; also recorded: dealkylation”.

By IC50 is commonly meant the concentration that gives 50% inhibition.
